Data reported in patent US7902327B2, “Dendrimeric peptides, pharmaceutical compositions and methods of using the same” (New York University School of Medicine, priority 2007, dated 2011).
In brackets after ≈: the same amount, converted by molar mass. Where no end group is shown, it is not given here.

Key:
[1] = system: multi-drug resistant strain S. aureus; details: salt not stated
[2] = system: Acinetobacter. baumannii (ATCC BAA-747)
E. coli RP437 biofilms = experiment: biofilm assay on stainless steel coupons with LIVE/DEAD staining; assay type: cell-based; details: for Biofilm coefficients: Dead cells / Biofilm coefficients: Live cells / Biofilm coefficients: Total biofilms: 24 hours
Experimental: The stainless steel (S.S.) coupons were polished using a fine 3M SandBlaster sandpaper, then autoclaved for sterilization. […] For all the treatments, duplicate coupons were tested. To analyze the E. coli biofilms using fluorescence microscopy, the biofilms were stained with […] bacterial viability kit (Cat# L7012, Invitrogen Corporation, California). Each S.S. coupon was washed gently by dipping vertically in 0.85% NaCl buffer three times (change to fresh buffer after each dipping). Then, they were soaked in 1 mL of 0.85% NaCl buffer containing 3 μl of staining component A and B (1:4) in the dark for 15 mins. Images were taken by AXIO Imager.M1 (Carl Zeiss, German). Five images were taken for each sample. Data were obtained and are presented in Table 3, below, as well as in FIG. 5.

Compound	MIC50 E. coli (E. coli) [µg/mL]	MIC50 S. aureus [1] [µg/mL]	MIC50 A. baumannii [2] [µg/mL]	further results
N=C(N)NCCC[C@H](N)C(=O)N[C@@H](Cc1ccc2ccccc2c1)C(=O)NCCCC[C@H](NC(=O)[C@H](Cc1ccc2ccccc2c1)NC(=O)[C@@H](N)CCCNC(=N)N)C(=O)NCCCC[C@H](NC(=O)[C@H](CCCCNC(=O)[C@H](Cc1ccc2ccccc2c1)NC(=O)[C@@H](N)CCCNC(=N)N)NC(=O)[C@H](Cc1ccc2ccccc2c1)NC(=O)[C@@H](N)CCCNC(=N)N)C(=O)NCCC(N)=O [Den(R-2Nal)4D]	21.5 (≈ 11.4 µM)	36.0	51.3 (≈ 27.2 µM)	–
N=C(N)NCCC[C@H](N)C(=O)N[C@@H](Cc1ccccc1)C(=O)NCCCC[C@H](NC(=O)[C@H](Cc1ccccc1)NC(=O)[C@@H](N)CCCNC(=N)N)C(=O)NCCCC[C@H](NC(=O)[C@H](CCCCNC(=O)[C@H](Cc1ccccc1)NC(=O)[C@@H](N)CCCNC(=N)N)NC(=O)[C@H](Cc1ccccc1)NC(=O)[C@@H](N)CCCNC(=N)N)C(=O)NCCC(N)=O [Den(RF)4D]	30 (≈ 17.8 µM)	180	160 (≈ 94.9 µM)	–
NCCCC[C@H](N)C(=O)N[C@@H](Cc1ccccc1)C(=O)NCCCC[C@H](NC(=O)[C@H](Cc1ccccc1)NC(=O)[C@@H](N)CCCCN)C(=O)NCCCC[C@H](NC(=O)[C@H](CCCCNC(=O)[C@H](Cc1ccccc1)NC(=O)[C@@H](N)CCCCN)NC(=O)[C@H](Cc1ccccc1)NC(=O)[C@@H](N)CCCCN)C(=O)NCCC(N)=O [Den(KF)4D]	77 (≈ 48.9 µM)	145	175 (≈ 111 µM)	–
NCCCC[C@H](N)C(=O)N[C@@H](Cc1c[nH]c2ccccc12)C(=O)NCCCC[C@H](NC(=O)[C@H](Cc1c[nH]c2ccccc12)NC(=O)[C@@H](N)CCCCN)C(=O)NCCCC[C@H](NC(=O)[C@H](CCCCNC(=O)[C@H](Cc1c[nH]c2ccccc12)NC(=O)[C@@H](N)CCCCN)NC(=O)[C@H](Cc1c[nH]c2ccccc12)NC(=O)[C@@H](N)CCCCN)C(=O)NCCC(N)=O [Den(KW)4D]	30.6 (≈ 17.7 µM)	23.3	52 (≈ 30.1 µM)	–
N=C(N)NCCC[C@H](N)C(=O)N[C@@H](Cc1ccc(O)cc1)C(=O)NCCCC[C@H](NC(=O)[C@H](Cc1ccc(O)cc1)NC(=O)[C@@H](N)CCCNC(=N)N)C(=O)NCCCC[C@H](NC(=O)[C@H](CCCCNC(=O)[C@H](Cc1ccc(O)cc1)NC(=O)[C@@H](N)CCCNC(=N)N)NC(=O)[C@H](Cc1ccc(O)cc1)NC(=O)[C@@H](N)CCCNC(=N)N)C(=O)NCCC(N)=O [Den(RY)4D]	12.6 (≈ 7.2 µM)	45.7	193 (≈ 110 µM)	–
NC(=O)CCNC(=O)[C@H](CCCCNC(=O)[C@H](CCCCNC(=O)[C@H](Cc1c[nH]c2ccccc12)NC(=O)[C@@H](N)Cc1c[nH]cn1)NC(=O)[C@H](Cc1c[nH]c2ccccc12)NC(=O)[C@@H](N)Cc1c[nH]cn1)NC(=O)[C@H](CCCCNC(=O)[C@H](Cc1c[nH]c2ccccc12)NC(=O)[C@@H](N)Cc1c[nH]cn1)NC(=O)[C@H](Cc1c[nH]c2ccccc12)NC(=O)[C@@H](N)Cc1c[nH]cn1 [Den(HW)4D]	30.6 (≈ 17.3 µM)	–	82.7 (≈ 46.8 µM)	–
N=C(N)NCCC[C@H](N)C(=O)NC(Cc1c[nH]c2ccc(F)cc12)C(=O)NCCCC[C@H](NC(=O)C(Cc1c[nH]c2ccc(F)cc12)NC(=O)[C@@H](N)CCCNC(=N)N)C(=O)NCCCC[C@H](NC(=O)[C@H](CCCCNC(=O)C(Cc1c[nH]c2ccc(F)cc12)NC(=O)[C@@H](N)CCCNC(=N)N)NC(=O)C(Cc1c[nH]c2ccc(F)cc12)NC(=O)[C@@H](N)CCCNC(=N)N)C(=O)NCCC(N)=O (stereo partly shown) [Den(RW*)4D]	9.3 (≈ 4.86 µM)	13	35 (≈ 18.3 µM)	–
RWRWRW-NH2 (C-terminus assumed) [Hexamer, reference compound]	–	–	–	Total biofilm formation compared with blank control (ANOVA) (E. coli RP437 biofilms; 25 μg/mL): not significant; Biofilm coefficients: Dead cells (E. coli RP437 biofilms; 25 μg/mL): 12.29% ± 2.00%; Biofilm coefficients: Live cells (E. coli RP437 biofilms; 25 μg/mL): 5.18% ± 1.57%; Biofilm coefficients: Total biofilms (E. coli RP437 biofilms; 25 μg/mL): 17.49% ± 2.20%; Total biofilm formation compared with blank control (ANOVA) (E. coli RP437 biofilms; 50 μg/mL): significantly reduced; Biofilm coefficients: Dead cells (E. coli RP437 biofilms; 50 μg/mL): 12.22% ± 2.02%; Biofilm coefficients: Live cells (E. coli RP437 biofilms; 50 μg/mL): 4.25% ± 1.55%; Biofilm coefficients: Total biofilms (E. coli RP437 biofilms; 50 μg/mL): 16.68% ± 2.11%
